Source: patent EP0007648A1, “New acylureas with pharmaceutical activity, the process for their preparation, and pharmaceutical compositions which contain them” (Investigacion Tecnica Y Aplicada, S.A., priority 1978, dated 1980)

Assays:
[1] = in vivo; conditions: mouse, ip, NMRI male mice, suspended in Tween 80 at 1% plus CMC at 2% in physiological serum, read-out: LD 50 mg/kg. i.p. NMRI mouse
Protocol: The products were administered via intraperitoneal, suspended in Tween 80 at 1% plus CMC at 2% in physiological serum.
The reference standard used was phenolbutazone.

[2] = test system: Platelet aggregation; assay: Anti platelet aggregation activity "ex vivo" (Born), ADP-induced aggregation after administration by gastric catheter; format: in vivo, rats, Sprage Dawley; conditions: for inhibition at 200 mg/kg: Dose 200 mg/kg p.o., rats, ADP-induced, 5 hours after administration; for anti platelet aggregation activity (in words): compared with acetilsalicilic acid given in a double dose
Source text: Platelet aggregation is induced by ADP (adenosindiphosphate) and measured in an aggregometer(Bryston) connected to a model R Omniscriber recorder.

[3] = test system: lactescence of the serum; assay: Hyperlipaemia activity: lactescence of the serum after oral olive oil; format: in vivo; conditions: for Activity; Hyper Lipaemia (%): Dose 200 mg/kg orally, suspended in 10 ml/kg of olive oil, serum lactescence 6 hours after administration; for hyperlipaemia activity (in words): against clofibrate
Protocol: For the determination of the hyperlipaemia activity the products were administered orally suspended in 10 ml/kg of olive oil evaluating the lactescence of the serum 6 hours after administration.

[4] = test system: hypercholesterolaemia induced by the administration of Triton WR 1339; assay: Hypercholesterolaemia induced by Triton WR 1339 (Garattini et al.); format: in vivo; conditions: among the products examined
Source text: To determine the hypercholesterolaemia activity tests have been conducted with hypercholesterolaemia induced by the administration of Triton WR 1339 in accordance with S. Garattini C.Morpurgo and Passerini (Experiment 12 (1956)347). The results obtained using clofibrate (ethyl […] of p-chlorophenoxyisobutiric acid), as a reference standard are shown in Table II below.

[5] = Rattus norvegicus, Platelet, po

Structure (SMILES)	LD50 [1]	inhibition at 200 mg/kg [2, 5]	inhibition at 400 mg/kg ([2]; Rattus norvegicus, Platelet, po, 5 h, read-out: Anti platelet aggregation p.o. % inhibition (5 hours))	anti platelet aggregation activity (in words) [2]	Activity; Hyper Lipaemia (%) [3]	hyperlipaemia activity (in words) [3]	hypercholesterolaemia activity (in words) [4]
COc1ccccc1C(=O)NC(=O)NCN1CCOCC1 [ITA-418, N-(2-methoxybenzoil)-N'-morpholinomethylurea]	1100 mg/kg	68%					
CC(=O)Oc1ccccc1C(=O)O [Acelylsalicilic acid, reference compound]			86.3%				
O=C(NCN1CCOCC1)NC(=O)c1cccnc1 [ITA-378, N-nicotinoil-N'-morpholino methylurea]	1700 mg/kg	81.9%		stand out in their anti platelet aggregation activity	54,7%	stand out in this activity	
COc1ccc2c(c1)c(CC(=O)NC(=O)NCN1CCOCC1)c(C)n2C(=O)c1ccc(Cl)cc1 [ITA-377, N-[1-(p-chiorobenzoil) -2-methyl-5-methoxyindol-3-il]acetyl-N' -morpholinomethylurea]	> 3000 mg/kg	5.3%			12,6%		
CC(C)Cc1ccc(C(C)C(=O)NC(=O)NCN2CCOCC2)cc1 (stereo not shown) [ITA-376, N-2-(p-isobutylphenyl) propionyl-N'-morpholinomethylurea]	1800 mg/kg	12.7%			1,3%		
CC(C)(Oc1ccc(C(=O)c2ccc(Cl)cc2)cc1)C(=O)NC(N)=O [ITA-374, N-2-[p-(p' -chlorobenzoil)phenoxy]-2-methylpropionylurea]	> 3000 mg/kg	16.1%			28,2%		
O=C(COc1ccc(Cl)cc1)NC(=O)NCN1CCOCC1 [ITA-372, N-(p-chlorophenoxy)acetyl N' -morpholinomethylurea]	300 mg/kg	8.1%					
CC(C)(Oc1ccc(C(=O)c2ccc(Cl)cc2)cc1)C(=O)NC(=O)NCN1CCOCC1 [ITA-375, N-2-[p-(p'-chlorobenzoil)phenoxy]-2-methylpropionyl-N'-morpholine methylurea]	950 mg/kg	68.5%		stand out in their anti platelet aggregation activity	41,1%	stand out in this activity	stands out for its efficacity
O=C(NCN1CCOCC1)NC(=O)C(Oc1ccc(Cl)cc1)Oc1ccc(Cl)cc1 [ITA-373, N-[bis(p-chiorophenoxy)] acetyl -N'-morpholinomethylurea]	1700 mg/kg	11.9%					
CCOC(=O)C(C)(C)Oc1ccc(Cl)cc1 [Clofibrate, ethyl esther of p-chlorophenoxyisobutiric acid, reference compound]					22,8%		
